Measurements as given in patent publication US9217015B2, “Cyclosporin derivatives for the treatment and prevention of a viral infection” (S&T Global Inc., priority 2010, dated 2015).
pIC50: −log10 of the molar value. Read-outs that look alike come from different tables or passages of the source. Numbered stars: 1 amine (or outer) side, 2 acyl side, 3 side chain; on linkers, the order of the positions; unused ones are H or OH. Square brackets hold non-standard residues; d marks the D form. Peptide text beside a SMILES is read from it. ξ: configuration not given here. MeBmt = C/C=C/C[C@@H](C)[C@@H](O)[C@H](NC)C(=O)O; X1 = CN([C@H](SCCCN1CCOCC1)C(=O)[*:2])[*:1]; X2 = CCN(CC)CCCS[C@H](C(=O)[*:2])N(C)[*:1]; X3 = CCN(CC)CCS[C@H](C(=O)[*:2])N(C)[*:1]; NMeIle(3ξ) = CCC(C)[C@H](NC)C(=O)O; NMeL = CN[C@@H](CC(C)C)C(=O)O; NMeV = CN[C@H](C(=O)O)C(C)C; Abu = CC[C@H](N)C(=O)O

Experiments:
HCV replicon = test: HCV subgenomic replicon assay (Huh7 ET luc-ubi-neo/ET cells, luciferase end point); type: cell-based; conditions: read-out: Antiviral activity IC50
Protocol: The anti-HCV activity of cyclosporine derivatives were evaluated in the HCV subgenomic replicon assay. The assay use the cell line ET (luc-ubi-neo/ET), which is a Huh7 human hepatoma cell line harboring an HCV replicon with a stable luciferase (Luc) reporter. HCV RNA replication was assessed by quantifying HCV replicon-derived luciferase activity. The antiviral activity of cyclosporine analogs were evaluated after drug treatment, the EC 50 and EC 90 were determined in subsequent assessments by using the luciferase end point (Krieger, N. et al., 2001, J. Virol. 75:4614-4624; Pietschmann, T. et al., 2002, J. Virol. 76:4008-4021; each of which is incorporated herein by reference).

[1] = type: physicochemical
Protocol: The stability of Cyclosporin derivatives were evaluated in methanol at 65° C. and 50° C., and HPLC was used to monitor possible degradation of these compounds (C8, 250 mm, NH4OAc 10 mmol in MeCN and H2O, operation temperature: 65° C.).

[2] = Huh7 ET (luc-ubi-neo/ET) cells, HCV replicon-derived luciferase activity

| Compound | Epimerization in MeOH at 50° C. ([1]; 29 hrs) | Epimerization in MeOH at 50° C. ([1]; 77 hrs) | Epimerization in MeOH at 50° C. ([1]; 125 hrs) | further results |
| --- | --- | --- | --- | --- |
| C/C=C/C[C@@H](C)[C@@H](O)[C@H]1C(=O)N[C@@H](CC)C(=O)N(C)[C@H](SCCN(CC)CC)C(=O)N(C)[C@@H](C(C)CC)C(=O)N[C@@H](C(C)C)C(=O)N(C)[C@@H](CC(C)C)C(=O)N[C@@H](C)C(=O)N[C@H](C)C(=O)N(C)[C@@H](CC(C)C)C(=O)N(C)[C@@H](CC(C)C)C(=O)N(C)[C@@H](C(C)C)C(=O)N1C (stereo partly drawn) [Example 4, [(R)-2-(N,N-Diethylamino)ethylthio-Sar]-3-[N-methylisoleucine]-4-cyclosporin] (cyclo(A[dA][NMeL][NMeL][NMeV][MeBmt][Abu][X3][NMeIle(3ξ)]V[NMeL])) |  |  |  | pIC50 (HCV replicon; Hepatitis C virus, Huh7 ET): 7.40 |
| C/C=C/C[C@@H](C)[C@@H](O)[C@H]1C(=O)N[C@@H](CC)C(=O)N(C)CC(=O)N(C)[C@@H]([C@@H](C)CC)C(=O)N[C@@H](C(C)C)C(=O)N(C)[C@@H](CC(C)C)C(=O)N[C@@H](C)C(=O)N[C@H](C)C(=O)N(C)[C@@H](CC(C)C)C(=O)N(C)[C@@H](CC(C)C)C(=O)N(C)[C@@H](C(C)C)C(=O)N1C [SDZ-NIM-811, N-MeIle-4-Cyclosporin, reference compound] |  |  |  | pIC50 (HCV replicon; Hepatitis C virus, Huh7 ET): 6.82 |
| C/C=C/C[C@@H](C)[C@@H](O)[C@H]1C(=O)N[C@@H](CC)C(=O)N(C)[C@H](SCCN(CC)CC)C(=O)N(C)[C@@H](C(C)C)C(=O)N[C@@H](C(C)C)C(=O)N(C)[C@@H](CC(C)C)C(=O)N[C@@H](C)C(=O)N[C@H](C)C(=O)N(C)[C@@H](CC(C)C)C(=O)N(C)[C@@H](CC(C)C)C(=O)N(C)[C@@H](C(C)C)C(=O)N1C [Example 1, [(R)-2-(N,N-Diethylamino)ethylthio-Sar]-3-[N-methylvaline]-4-cyclosporin] (cyclo(A[dA][NMeL][NMeL][NMeV][MeBmt][Abu][X3][NMeV]V[NMeL])) |  |  |  | pIC50 (HCV replicon; Hepatitis C virus, Huh7 ET): 7.30 |
| C/C=C/C[C@@H](C)[C@@H](O)[C@H]1C(=O)N[C@@H](CC)C(=O)N(C)[C@H](SCCCN2CCOCC2)C(=O)N(C)[C@@H](C(C)CC)C(=O)N[C@@H](C(C)C)C(=O)N(C)[C@@H](CC(C)C)C(=O)N[C@@H](C)C(=O)N[C@H](C)C(=O)N(C)[C@@H](CC(C)C)C(=O)N(C)[C@@H](CC(C)C)C(=O)N(C)[C@@H](C(C)C)C(=O)N1C (stereo partly drawn) [Example 6, [(R)-3-(N-Morpholino)propylthio-Sar]-3-[N-methylisoleucine]-4-cyclosporin] (cyclo(A[dA][NMeL][NMeL][NMeV][MeBmt][Abu][X1][NMeIle(3ξ)]V[NMeL])) |  |  |  | pIC50 (HCV replicon; Hepatitis C virus, Huh7 ET): 7.30 |
| C/C=C/C[C@@H](C)[C@@H](O)[C@H]1C(=O)N[C@@H](CC)C(=O)N(C)[C@H](SCCN(C)C)C(=O)N(C)[C@@H](CC(C)C)C(=O)N[C@@H](C(C)C)C(=O)N(C)[C@@H](CC(C)C)C(=O)N[C@@H](C)C(=O)N[C@H](C)C(=O)N(C)[C@@H](CC(C)C)C(=O)N(C)[C@@H](CC(C)C)C(=O)N(C)[C@@H](C(C)C)C(=O)N1C [drawing 57] |  |  |  | Epimerization in MeOH at 65° C. ([1]; 2 hours): 12%; Epimerization in MeOH at 65° C. ([1]; 4 hours): 19%; Epimerization in MeOH at 65° C. ([1]; 6 hours): 23% |
| C/C=C/C[C@@H](C)[C@@H](O)[C@H]1C(=O)N[C@@H](CC)C(=O)N(C)CC(=O)N(C)[C@@H](C(C)C)C(=O)N[C@@H](C(C)C)C(=O)N(C)[C@@H](CC(C)C)C(=O)N[C@@H](C)C(=O)N[C@H](C)C(=O)N(C)[C@@H](CC(C)C)C(=O)N(C)[C@@H](CC(C)C)C(=O)N(C)[C@@H](C(C)C)C(=O)N1C [SDZ-220-384, N-MeVal-4-cyclosporin, reference compound] |  |  |  | pIC50 (HCV replicon; [2]): 6.77 |
| [(S)-2-(N,N-Diethylamino)ethylthio-Sar]-3-[N-methylvaline]-4-cyclosporin |  |  |  | pIC50 (HCV replicon; [2]): 5.44 |
| C/C=C/C[C@@H](C)[C@@H](O)[C@H]1C(=O)N[C@@H](CC)C(=O)N(C)[C@H](SCCN(C)C)C(=O)N(C)[C@@H](CC(C)(C)O)C(=O)N[C@@H](C(C)C)C(=O)N(C)[C@@H](CC(C)C)C(=O)N[C@@H](C)C(=O)N[C@H](C)C(=O)N(C)[C@@H](CC(C)C)C(=O)N(C)[C@@H](CC(C)C)C(=O)N(C)[C@@H](C(C)C)C(=O)N1C [SCY-635, reference compound] |  |  |  | Chemical stability (conversion to epimer), in words [1]: not chemically stable |
| C/C=C/C[C@@H](C)[C@@H](O)[C@H]1C(=O)N[C@@H](CC)C(=O)N(C)[C@H](SCCN(C)C)C(=O)N(C)[C@@H](CC(C)C)C(=O)N[C@@H](C(C)C)C(=O)N(C)[C@@H](CC(C)C)C(=O)N[C@@H](C)C(=O)N[C@H](C)C(=O)N(C)[C@@H](CC(C)C)C(=O)N(C)[C@@H](CC(C)C)C(=O)N(C)[C@@H](C(C)C)C(=O)N1C [[(R)-2-(N,N-Dimethylamino)ethylthio-Sar]-3-cyclosporin, reference compound] |  |  |  | Chemical stability (conversion to epimer), in words [1]: not stable |

Second part, led by results:

| Epimerization in MeOH at 50° C. ([1]; 29 hrs) | Epimerization in MeOH at 50° C. ([1]; 77 hrs) | Epimerization in MeOH at 50° C. ([1]; 125 hrs) | Compound | further results |
| --- | --- | --- | --- | --- |
| 0% | 0% | 0% | C/C=C/C[C@@H](C)[C@@H](O)[C@H]1C(=O)N[C@@H](CC)C(=O)N(C)[C@H](SCCCN(CC)CC)C(=O)N(C)[C@@H](C(C)C)C(=O)N[C@@H](C(C)C)C(=O)N(C)[C@@H](CC(C)C)C(=O)N[C@@H](C)C(=O)N[C@H](C)C(=O)N(C)[C@@H](CC(C)C)C(=O)N(C)[C@@H](CC(C)C)C(=O)N(C)[C@@H](C(C)C)C(=O)N1C (cyclo(A[dA][NMeL][NMeL][NMeV][MeBmt][Abu][X2][NMeV]V[NMeL])) |  |
| 0% | 0% | 0% | C/C=C/C[C@@H](C)[C@@H](O)[C@H]1C(=O)N[C@@H](CC)C(=O)N(C)[C@H](SCCCN2CCOCC2)C(=O)N(C)[C@@H](C(C)CC)C(=O)N[C@@H](C(C)C)C(=O)N(C)[C@@H](CC(C)C)C(=O)N[C@@H](C)C(=O)N[C@H](C)C(=O)N(C)[C@@H](CC(C)C)C(=O)N(C)[C@@H](CC(C)C)C(=O)N(C)[C@@H](C(C)C)C(=O)N1C (some centres unmarked) (cyclo(A[dA][NMeL][NMeL][NMeV][MeBmt][Abu][X1][NMeIle(3ξ)]V[NMeL])) |  |
| 0% | 0% | 0% | C/C=C/C[C@@H](C)[C@@H](O)[C@H]1C(=O)N[C@@H](CC)C(=O)N(C)[C@H](SCCCN(CC)CC)C(=O)N(C)[C@@H](C(C)CC)C(=O)N[C@@H](C(C)C)C(=O)N(C)[C@@H](CC(C)C)C(=O)N[C@@H](C)C(=O)N[C@H](C)C(=O)N(C)[C@@H](CC(C)C)C(=O)N(C)[C@@H](CC(C)C)C(=O)N(C)[C@@H](C(C)C)C(=O)N1C (some centres unmarked) (cyclo(A[dA][NMeL][NMeL][NMeV][MeBmt][Abu][X2][NMeIle(3ξ)]V[NMeL])) |  |
| 4.4% | 10.4% | 16.2% | C/C=C/C[C@@H](C)[C@@H](O)[C@H]1C(=O)N[C@@H](CC)C(=O)N(C)[C@H](SCCN(CC)CC)C(=O)N(C)[C@@H](C(C)CC)C(=O)N[C@@H](C(C)C)C(=O)N(C)[C@@H](CC(C)C)C(=O)N[C@@H](C)C(=O)N[C@H](C)C(=O)N(C)[C@@H](CC(C)C)C(=O)N(C)[C@@H](CC(C)C)C(=O)N(C)[C@@H](C(C)C)C(=O)N1C (some centres unmarked) [reference compound] (cyclo(A[dA][NMeL][NMeL][NMeV][MeBmt][Abu][X3][NMeIle(3ξ)]V[NMeL])) |  |
| 0% | 0% | 0% | C/C=C/C[C@@H](C)[C@@H](O)[C@H]1C(=O)N[C@@H](CC)C(=O)N(C)[C@H](SCCCN2CCOCC2)C(=O)N(C)[C@@H](C(C)C)C(=O)N[C@@H](C(C)C)C(=O)N(C)[C@@H](CC(C)C)C(=O)N[C@@H](C)C(=O)N[C@H](C)C(=O)N(C)[C@@H](CC(C)C)C(=O)N(C)[C@@H](CC(C)C)C(=O)N(C)[C@@H](C(C)C)C(=O)N1C (cyclo(A[dA][NMeL][NMeL][NMeV][MeBmt][Abu][X1][NMeV]V[NMeL])) |  |
| 25.5% | 31.8% | 34.9% | C/C=C/C[C@@H](C)[C@@H](O)[C@H]1C(=O)N[C@@H](CC)C(=O)N(C)[C@H](SCCN(C)C)C(=O)N(C)[C@@H](CC(C)C)C(=O)N[C@@H](C(C)C)C(=O)N(C)[C@@H](CC(C)C)C(=O)N[C@@H](C)C(=O)N[C@H](C)C(=O)N(C)[C@@H](CC(C)C)C(=O)N(C)[C@@H](CC(C)C)C(=O)N(C)[C@@H](C(C)C)C(=O)N1C [drawing 58, reference compound] |  |
